Here are results for six molecules from ChEMBL document CHEMBL4376805, “Plasmodium Purine Metabolism and Its Inhibition by Nucleoside and Nucleotide Analogues” (J Med Chem, 2019).

Assay [1] concerns the target T1, Purine nucleoside phosphorylase (Plasmodium falciparum, UniProt Q8T9Z7).
T1 sequence (Q8T9Z7 whole entry): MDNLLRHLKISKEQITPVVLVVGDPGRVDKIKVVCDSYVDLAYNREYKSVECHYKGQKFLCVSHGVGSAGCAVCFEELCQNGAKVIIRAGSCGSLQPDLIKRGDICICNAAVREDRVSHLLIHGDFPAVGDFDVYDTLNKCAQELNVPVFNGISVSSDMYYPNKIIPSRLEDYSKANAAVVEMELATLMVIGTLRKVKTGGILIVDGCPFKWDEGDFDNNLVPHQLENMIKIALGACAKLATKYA
Description: Inhibition of Plasmodium falciparum His-tagged PNP assessed as inhibitor constant for enzyme-inhibitor complex formation

Assay [2] concerns the target T2, Purine nucleoside phosphorylase (Homo sapiens, UniProt P00491).
T2 sequence (P00491 whole entry): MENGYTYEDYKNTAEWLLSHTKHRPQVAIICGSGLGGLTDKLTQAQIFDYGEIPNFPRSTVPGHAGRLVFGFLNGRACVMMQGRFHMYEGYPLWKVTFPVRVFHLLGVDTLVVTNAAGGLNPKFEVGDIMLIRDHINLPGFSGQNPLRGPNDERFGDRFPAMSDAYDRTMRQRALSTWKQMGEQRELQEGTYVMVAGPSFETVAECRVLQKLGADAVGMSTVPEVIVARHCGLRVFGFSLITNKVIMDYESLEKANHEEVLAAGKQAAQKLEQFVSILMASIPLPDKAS
Description: Inhibition of human PNP assessed as inhibitor constant for enzyme-inhibitor-substrate complex formation

Assay [3] concerns the target T1, Purine nucleoside phosphorylase. This is another data set of the same source.
Description: Inhibition of Plasmodium falciparum His-tagged PNP assessed as inhibitor constant for enzyme-inhibitor-substrate complex formation
Assay [4] deals with T2, Purine nucleoside phosphorylase. This is another data set of the same source.
Description: Inhibition of human PNP assessed as inhibitor constant for enzyme-inhibitor complex formation
Assay [5] addresses T3, Hypoxanthine-guanine phosphoribosyltransferase (Homo sapiens, UniProt P00492).
T3 sequence (P00492 whole entry): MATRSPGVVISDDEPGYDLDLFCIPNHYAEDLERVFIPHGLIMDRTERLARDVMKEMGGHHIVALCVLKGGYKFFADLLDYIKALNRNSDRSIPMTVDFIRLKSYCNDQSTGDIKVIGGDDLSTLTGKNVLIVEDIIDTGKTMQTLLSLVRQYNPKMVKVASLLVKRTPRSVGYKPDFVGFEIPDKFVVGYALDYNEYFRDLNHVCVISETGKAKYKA
The experiment in a line: Inhibition of human HGPRT assessed as inhibitor constant for enzyme-inhibitor complex formation using [5'-14C]IMP as substrate by scintillation counting method.

Assay [6] in a line: Inhibition of Plasmodium falciparum HGXPRT expressed in Escherichia coli BL21 (DE3) assessed as inhibitor constant for enzyme-inhibitor-substrate complex formation using [5'-14C]IMP as substrate by scintillation counting method.
Assay [7] deals with GMP synthase [glutamine-hydrolyzing] (Homo sapiens, UniProt P49915).
Chain of GMP synthase [glutamine-hydrolyzing] (P49915 whole entry): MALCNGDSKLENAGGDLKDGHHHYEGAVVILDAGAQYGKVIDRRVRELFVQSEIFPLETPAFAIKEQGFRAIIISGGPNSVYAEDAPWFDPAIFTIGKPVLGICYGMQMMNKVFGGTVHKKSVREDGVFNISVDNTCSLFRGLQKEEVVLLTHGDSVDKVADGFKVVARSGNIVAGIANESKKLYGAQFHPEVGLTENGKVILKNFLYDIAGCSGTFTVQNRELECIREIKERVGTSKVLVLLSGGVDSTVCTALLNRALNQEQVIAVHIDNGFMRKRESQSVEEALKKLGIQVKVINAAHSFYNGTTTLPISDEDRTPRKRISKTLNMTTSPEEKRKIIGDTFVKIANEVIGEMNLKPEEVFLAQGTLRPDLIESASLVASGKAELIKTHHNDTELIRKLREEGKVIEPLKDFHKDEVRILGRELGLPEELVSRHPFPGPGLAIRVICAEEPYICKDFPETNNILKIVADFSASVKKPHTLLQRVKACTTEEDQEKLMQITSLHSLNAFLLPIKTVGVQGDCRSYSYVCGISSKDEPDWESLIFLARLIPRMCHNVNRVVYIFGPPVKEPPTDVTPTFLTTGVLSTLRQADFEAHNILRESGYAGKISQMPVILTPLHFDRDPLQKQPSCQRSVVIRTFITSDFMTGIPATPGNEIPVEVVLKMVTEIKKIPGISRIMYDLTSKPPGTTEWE
Description: Inhibition of human GMP synthase
The subject of assay [8] is Plasmodium falciparum. The experiment in a line: Antimalarial activity against synchronized Plasmodium falciparum ring stage form assessed as reduction in [2,8-3H]Hypoxanthine incorporation incubated for 48 hrs followed by addition of [2,8-3H]Hypoxanthine and measured after 24 hrs by liquid scintillation counting method. The format is functional, organism-based.
For assay [9], the system named is Plasmodium falciparum. Nature of the assay: Antimalarial activity against Plasmodium falciparum 3D7 assessed as reduction in parasite growth incubated for 48 hrs by Giemsa-staining counting based microscopic analysis. The format is functional, organism-based. Conditions: 3D7, 48 h.
The target in assay [10] is T4, GMP synthase [glutamine-hydrolyzing] (Plasmodium falciparum) (UniProt Q8IJR9).
T4 sequence (whole entry): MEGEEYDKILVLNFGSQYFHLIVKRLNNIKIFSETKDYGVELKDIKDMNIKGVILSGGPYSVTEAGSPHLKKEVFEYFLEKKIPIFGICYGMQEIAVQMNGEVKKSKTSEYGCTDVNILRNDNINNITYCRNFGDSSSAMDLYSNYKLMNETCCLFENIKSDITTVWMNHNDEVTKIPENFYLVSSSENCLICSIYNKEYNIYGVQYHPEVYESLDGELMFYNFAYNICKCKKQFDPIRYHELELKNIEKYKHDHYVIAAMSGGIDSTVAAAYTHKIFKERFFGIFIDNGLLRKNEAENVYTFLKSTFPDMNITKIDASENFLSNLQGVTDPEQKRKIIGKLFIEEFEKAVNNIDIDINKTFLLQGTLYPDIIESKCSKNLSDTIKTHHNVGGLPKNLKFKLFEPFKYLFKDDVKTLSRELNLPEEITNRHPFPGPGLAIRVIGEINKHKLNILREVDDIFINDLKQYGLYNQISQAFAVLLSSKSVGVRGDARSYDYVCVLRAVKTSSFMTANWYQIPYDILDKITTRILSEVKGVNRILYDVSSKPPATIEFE
The experiment in a line: Inhibition of Plasmodium falciparum N-terminal His-tagged GMP synthase expressed in Escherichia coli AT2465 assessed as reduction in NADH formation incubated at 0.5 mM for 20 mins by spectrophotometric analysis relative to control.

Assay [11] deals with T2, Purine nucleoside phosphorylase. The experiment in a line: Inhibition of human PNP expressed in Escherichia coli assessed as reduction in uric acid formation by spectrophotometric method.
Assay [12] has as its system Plasmodium falciparum. Nature of the assay: microbe, parasite or virus in culture. Conditions: 3D7.
Description: Antimalarial activity against Plasmodium falciparum 3D7 infected in human erythrocytes assessed as reduction in [3H]ethanolamine incorporation incubated for 18 hrs followed by addition of [3H]ethanolamine and measured after 48 hrs by scintillation counting method

In general, Ki refers to the equilibrium dissociation constant of an inhibitor or competing ligand from its target. Broadly, the IC50 is the point on the concentration scale where inhibition reaches its midpoint. What is called inhibition is the percentage by which the read-out fell short of the control.

On to `O=c1[nH]cnc2c(CN3C[C@@H](CO)[C@H](O)C3)c[nH]c12`, for which the Ki in assay [1] is 1.5 nM; in [2] it was 80 nM; in assay [3], 0.68 nM; in [4] it was 1700 nM.

Turning to `Nc1nc2c([C@@H]3N[C@H](COP(=O)(O)O)[C@@H](O)[C@H]3O)c[nH]c2c(=O)[nH]1`, the Ki is 56 nM in [5] and 14 nM in assay [6].

`C=C1O[C@@](CO)(n2cnc3c(N)ncnc32)[C@H](O)[C@@H]1O` [DECOYININE] showed a half-maximal inhibitory concentration (IC50) in assay [7] of 46500 nM.

Turning to `Nc1ncnc2c1c(I)cn2[C@@H]1O[C@H](CO)[C@@H](O)[C@H]1O` [IODOTUBERCIDIN], the IC50 in the assay with Plasmodium falciparum [8] came out at 2000 nM.

With `Nc1ncnc2c1ncn2[C@]1(CO)O[C@H](CO)[C@@H](O)[C@H]1O` [PSICOFURANINE], the concentration for half-maximal inhibition (IC50) with Plasmodium falciparum [9] amounted to 300000 nM. Besides, in assay [10], the inhibition stood at 25%.

Turning to `CSC[C@H]1N[C@@H](c2c[nH]c3c(=O)[nH]cnc23)[C@H](O)[C@@H]1O`, in [11], the Ki turned out to be 303 nM. Also, in the assay with Plasmodium falciparum [12], the half-maximal inhibitory concentration (IC50) worked out at 50 nM.
